Results published in ChEMBL document CHEMBL1128912, “DNA cleavage of novel propargylic sulfones. Enhancement of potency via intercalating interaction” (Bioorg Med Chem Lett, 1996).

System: KB
Experiment: Cytotoxicity was evaluated by using KB/P cancer cells
Type: functional, cell-based
Settings: Homo sapiens

O=S(=O)(CC#CCCCCC#CCO)c1ccccc1
IC50: 5.3 µM
